Measurements as given in patent US8618095B2 (Rigel Pharmaceuticals, Inc., priority 2010, dated 2013).

system: Human mast cells (CHMC); assay: LD Tryptase release assay in CHMC (mast cell activation induced by FcγR cross-linking); type: cell-based; conditions: Homo sapiens, Mast cell, anti-IgG stimulation, activity of tryptase released upon degranulation
In short: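 Mast cells derived from CD38-negative progenitors were preincubated 1 h at 37 °C with compound in HEPES-buffered saline (pH 7.4, 0.1% BSA, compound diluted in buffer with 2% MeOH/1% DMSO). Cells were then stimulated 60 min with anti-human IgG (final 1 μg/mL). Released tryptase was measured on Z-Ala-Lys-Arg-AMC (30 min, room temperature, 355/460 nm) to give the IC50.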

IC50 [µM] | SMILES
0.1 to 0.5 | CC1(C)Oc2ccc(Nc3nc(Nc4ccc(N5CCC(C(N)=O)CC5)cc4)ncc3F)nc2NC1=O [Compound 150, N4-(2,2-dimethyl-3,4-dihydro-3-oxo-2H-pyrido[3,2-b][1,4]oxazin-6-yl)-5-fluoro-N2-[4-(4-(aminocarbonyl)piperidin-1-yl)phenyl]-2,4-pyrimidinediamine]
0.1 to 0.5 | C[C@H]1COCCN1c1ccc(Nc2ncc(F)c(Nc3ccc4c(n3)NC(=O)C(C)(C)O4)n2)cc1 [Compound 120, N4-(2,2-dimethyl-3,4-dihydro-3-oxo-2H-pyrido[3,2-b][1,4]oxazin-6-yl)-5-fluoro-N2-[4-((3S)-3-methylmorpholino)phenyl]-2,4-pyrimidinediamine]
0.1 to 0.5 | O=C1COc2ccc(Nc3nc(Nc4cnc(N5CCOCC5)c(F)c4)ncc3F)nc2N1 [Compound 16, N4-(3,4-dihydro-3-oxo-2H-pyrido[3,2-b][1,4]oxazin-6-yl)-5-fluoro-N2-[5-fluoro-6-morpholinopyridin-3-yl]-2,4-pyrimidinediamine]
0.1 to 0.5 | COC1CCN(c2ccc(Nc3ncc(F)c(Nc4ccc5c(n4)NC(=O)C(C)(C)O5)n3)cn2)CC1 [Compound 53, N4-(2,2-dimethyl-3,4-dihydro-3-oxo-2H-pyrido[3,2-b][1,4]oxazin-6-yl)-5-fluoro-N2-[6-(4-methoxypiperidin-1-yl)pyridin-3-yl]-2,4-pyrimidinediamine]
< 0.1 | CC1(C)Oc2ccc(Nc3nc(Nc4ccc(N5CCOCC5)cc4)ncc3F)nc2NC1=O [Compound 1, N4-(2,2-dimethyl-3,4-dihydro-3-oxo-2H-pyrido[3,2-b][1,4]oxazin-6-yl)-5-fluoro-N2-(4-morpholinophenyl)-2,4-pyrimidinediamine]
0.5 to 1 | CN1CCN(c2ccc(Nc3ncc(F)c(Nc4ccc5c(n4)NC(=O)C(C)(C)O5)n3)cn2)CC1 [Compound 18, N4-(2,2-dimethyl-3,4-dihydro-3-oxo-2H-pyrido[3,2-b][1,4]oxazin-6-yl)-5-fluoro-N2-[6-(4-methylpiperazin-1-yl)pyridin-3-yl]-2,4-pyrimidinediamine]
< 0.1 | CC1(C)CN(c2ccc(Nc3ncc(F)c(Nc4ccc5c(n4)NC(=O)C(C)(C)O5)n3)cc2)CCO1 [Compound 116, N4-(2,2-dimethyl-3,4-dihydro-3-oxo-2H-pyrido[3,2-b][1,4]oxazin-6-yl)-N2-[4-(2,2-dimethylmorpholino)phenyl]-5-fluoro-2,4-pyrimidinediamine]
0.1 to 0.5 | CC1(C)Oc2ccc(Nc3nc(Nc4ccc(N5CCC6(CCOC6)CC5)nc4)ncc3F)nc2NC1=O [Compound 144, N4-(2,2-dimethyl-3,4-dihydro-3-oxo-2H-pyrido[3,2-b][1,4]oxazin-6-yl)-5-fluoro-N2-[6-(2-oxa-8-azaspiro[4.5]decan-8-yl)pyridin-3-yl]-2,4-pyrimidinediamine]
0.1 to 0.5 | C[C@@H]1CN(c2ccc(Nc3ncc(F)c(Nc4ccc5c(n4)NC(=O)C(C)(C)O5)n3)cc2)C[C@H](C)O1 [Compound 36, rac-Cis-N4-(2,2-dimethyl-3,4-dihydro-3-oxo-2H-pyrido[3,2-b][1,4]oxazin-6-yl)-5-fluoro-N2-[4-(2,6-dimethylmorpholino)phenyl]-2,4-pyrimidinediamine]
< 0.1 | COc1cc(Nc2ncc(F)c(Nc3ccc4c(n3)NC(=O)CO4)n2)ccc1C1CCOCC1 [Compound 49, N4-(3,4-dihydro-3-oxo-2H-pyrido[3,2-b][1,4]oxazin-6-yl)-5-fluoro-N2-[-3-methoxy-4-tetrahydropyranophenyl]-2,4-pyrimidinediamine]
0.1 to 0.5 | O=C1COc2ccc(Nc3nc(Nc4ccc(N5C[C@@H]6C[C@H]5CO6)cc4)ncc3F)nc2N1 [Compound 37, N4-(3,4-dihydro-3-oxo-2H-pyrido[3,2-b][1,4]oxazin-6-yl)-5-fluoro-N2-[4-((1S,4S)-5-oxa-2-aza-bicyclo[2.2.1]heptan-2-yl)phenyl]-2,4-pyrimidinediamine]
< 0.1 | O=C1COc2ccc(Nc3nc(Nc4ccc(N5CCO[C@H](CCO)C5)cc4)ncc3F)nc2N1 (stereo in doubt) [Compound 125, N4-(3,4-dihydro-3-oxo-2H-pyrido[3,2-b][1,4]oxazin-6-yl)-5-fluoro-N2-[4-((2-hydroxyethyl)morpholino)phenyl]-2,4-pyrimidinediamine]
1 to 100 | CC1(C)Oc2ccc(Nc3nc(Nc4ccc(N5CCC(F)(F)CC5)c(F)c4)ncc3F)nc2NC1=O [Compound 30, N4-(2,2-dimethyl-3,4-dihydro-3-oxo-2H-pyrido[3,2-b][1,4]oxazin-6-yl)-5-fluoro-N2-[3-fluoro-4-(4,4-difluoro-1-piperidinyl)phenyl]-2,4-pyrimidinediamine]
0.1 to 0.5 | C[C@@H]1COCCN1c1ccc(Nc2ncc(F)c(Nc3ccc4c(n3)NC(=O)C(C)(C)O4)n2)cc1 [Compound 81]
< 0.1 | Cc1cc(Nc2ncc(F)c(Nc3ccc4c(n3)NC(=O)C(C)(C)O4)n2)cnc1N1CCOCC1 [Compound 13, N4-(2,2-dimethyl-3,4-dihydro-3-oxo-2H-pyrido[3,2-b][1,4]oxazin-6-yl)-5-fluoro-N2-[5-methyl-6-morpholinopyridin-3-yl]-2,4-pyrimidinediamine]
0.1 to 0.5 | COCCN(C)c1ccc(Nc2ncc(F)c(Nc3ccc4c(n3)NC(=O)C(C)(C)O4)n2)cn1 [Compound 99]
0.1 to 0.5 | CC1(C)Oc2ccc(Nc3nc(Nc4ccc(N5CC[C@@H](O)C5)nc4)ncc3F)nc2NC1=O [Compound 64, N4-(2,2-dimethyl-3,4-dihydro-3-oxo-2H-pyrido[3,2-b][1,4]oxazin-6-yl)-5-fluoro-N2-[6-((3R)-3-hydroxypyrrolidin-1-yl)pyridin-3-yl]-2,4-pyrimidinediamine]
0.1 to 0.5 | CN(C[C@@H]1CCCO1)c1ccc(Nc2ncc(F)c(Nc3ccc4c(n3)NC(=O)C(C)(C)O4)n2)cn1 [Compound 109]
1 to 100 | CC(C)[C@H]1COC(=O)N1c1ccc(Nc2ncc(F)c(Nc3ccc4c(n3)NC(=O)C(C)(C)O4)n2)cn1 [Compound 74, N4-(2,2-dimethyl-3,4-dihydro-3-oxo-2H-pyrido[3,2-b][1,4]oxazin-6-yl)-5-fluoro-N2-[6-((4S)-4-isopropyl-2-oxooxazolidin-3-yl)pyridin-3-yl]-2,4-pyrimidinediamine]
< 0.1 | C[C@@H]1CN(c2ccc(Nc3ncc(F)c(Nc4ccc5c(n4)NC(=O)CO5)n3)cc2)CCO1 [Compound 117, N4-(3,4-dihydro-3-oxo-2H-pyrido[3,2-b][1,4]oxazin-6-yl)-5-fluoro-N2-[4-((2R)-2-methylmorpholino)phenyl]-2,4-pyrimidinediamine]
0.1 to 0.5 | O=C1COc2ccc(Nc3nc(Nc4ccc(N5CCCOCC5)cc4)ncc3F)nc2N1 [Compound 44, N4-(3,4-dihydro-3-oxo-2H-pyrido[3,2-b][1,4]oxazin-6-yl)-5-fluoro-N2-[4-homomorpholinophenyl]-2,4-pyrimidinediamine]
< 0.1 | O=C1COc2ccc(Nc3nc(Nc4ccc(N5CCOCC5)c(F)c4)ncc3F)nc2N1 [Compound 34, N4-(3,4-dihydro-3-oxo-2H-pyrido[3,2-b][1,4]oxazin-6-yl)-5-fluoro-N2-[3-fluoro-4-morpholinophenyl]-2,4-pyrimidinediamine]
< 0.1 | O=C1COc2ccc(Nc3nc(Nc4ccc(N5CCO[C@@H](CO)C5)cc4)ncc3F)nc2N1 [Compound 127, N4-(3,4-dihydro-3-oxo-2H-pyrido[3,2-b][1,4]oxazin-6-yl)-5-fluoro-N2-[4-((2-hydroxymethyl)morpholino)phenyl]-2,4-pyrimidinediamine]

same assay, conditions: Mast cell, anti-IgG stimulation, activity of tryptase released upon degranulation

SMILES | IC50 [µM]
CC1(C)Oc2ccc(Nc3nc(Nc4ccc(N5CCOCC5)cc4)ncc3F)nc2N(COP(=O)(O)O)C1=O [Compound 2, N4-(2,2-dimethyl-3,4-dihydro-4-[(dihydrogenphosphonoxy)methyl]-3-oxo-2H-pyrido[3,2-b][1,4]oxazin-6-yl)-5-fluoro-N2-(4-morpholinophenyl)-2,4-pyrimidinediamine] | 1 to 100
